“Also recorded” adds a separate entry of the source. Where two headings read alike, the source gives them in different places.
Columns and labels:
[1] = test system: uninfected cells (MA 104 cells); assay: Toxicity of the compounds to uninfected cells (CC50); assay type: cell-based; conditions: concentration that kills 50% of uninfected cells
Experimental: Compounds were individually tested for activity against HSV-1 and/or HSV-2. HSV-2 (strain 414-92) was tested using MA 104 cells in the following assay protocol. 96-Well plates were seeded with 1×10^4 MA 104 cells per well using 200 μL minimal essential medium (MEM) containing 10% calf serum per well, and incubated overnight at 37° C. The compounds were dissolved in MEM Earle's Salts without serum. The medium was removed by-aspiration and 100 μL MEM Earle's Salts without serum was added to the wells. Serial 3-fold dilutions of the compounds were prepared by serial transfer of 50 μL of medium from wells containing compound to wells lacking compound. The plates were incubated 15 minutes at 37° C. followed by addition of 100 PFU/well of virus in MEM Earle's Salts with 2% fetal bovine serum. The plates were then incubated at 37° C. for three days until approximately 90% of the cells in virus infected control wells containing no compound were killed. Following incubation, medium was aspirated and the wells were washed with sterile PBS. 100 μL 0.5% crystal violet in 20% methanol was then added to the wells for 5 minutes, aspirated and the wells were washed two or three times with distilled water. 200 μL of 0.01 N HCl was added to the wells and the absorbance of each well at 595 nm was determined. […]

HSV-2 (strain 414-92) = assay: Antiviral activity against HSV-2 (strain 414-92) in MA 104 cells, crystal violet readout; assay type: cell-based; conditions: HSV-2 strain 414-92, MA 104 cells, three days; concentration that inhibits virus-mediated cell killing by 50%
Experimental: Compounds were individually tested for activity against HSV-1 and/or HSV-2. HSV-2 (strain 414-92) was tested using MA 104 cells in the following assay protocol. 96-Well plates were seeded with 1×10^4 MA 104 cells per well using 200 μL minimal essential medium (MEM) containing 10% calf serum per well, and incubated overnight at 37° C. The compounds were dissolved in MEM Earle's Salts without serum. The medium was removed by-aspiration and 100 μL MEM Earle's Salts without serum was added to the wells. Serial 3-fold dilutions of the compounds were prepared by serial transfer of 50 μL of medium from wells containing compound to wells lacking compound. The plates were incubated 15 minutes at 37° C. followed by addition of 100 PFU/well of virus in MEM Earle's Salts with 2% fetal bovine serum. The plates were then incubated at 37° C. for three days until approximately 90% of the cells in virus infected control wells containing no compound were killed. Following incubation, medium was aspirated and the wells were washed with sterile PBS. 100 μL 0.5% crystal violet in 20% methanol was then added to the wells for 5 minutes, aspirated and the wells were washed two or three times with distilled water. 200 μL of 0.01 N HCl was added to the wells and the absorbance of each well at 595 nm was determined. The results, shown in Table 6, were expressed as the IC50, the concentration (μM) that inhibits cell killing mediated by HSV-2 by 50%. […] The toxicity of the compounds were expressed as the CC50, the concentration that kills 50% of uninfected cells.

[2] = test system: human cytomegalovirus (HCMV); conditions: cited from earlier work
HCMV = assay: Activity against HCMV in tissue culture (NHDF cell line); assay type: cell-based
Text: The title compound was synthesized using N^4-benzoyl HPMPC diethyl ester tritylated at the hydroxyl group as a starting material. The starting material was detritylated using acetic acid and then converted to N^4-benzoyl HPMPC using TMSBr. The resulting compound was converted to N^4-benzoyl cHPMPC using DCC and morpholine in pyridine.

[3] = test system: herpes simplex virus, type-1 and 2 (HSV-1 and -2); conditions: cited from earlier work
[4] = Incubation in rat intestinal wash; assay type: in vitro ADME; conditions: both phosphorus isomers
Text: (§1) The cHFMPC pivaloyloxymethyl ester synthesis yields a scalemic mixture at the phosphorus atom. The mixture was separated by HIPLC into the two isomers which were then exposed to an rat intestinal homogenate or to a rat intestinal wash.

[5] = Incubation in rat intestinal homogenate; assay type: in vitro ADME; conditions: two phosphorus isomers separated by HPLC (one isomer / the other isomer)
Text: as §1

KOS strain of HSV-1 = assay: Antiviral activity against KOS strain of HSV-1 in VERO cells; assay type: cell-based; conditions: KOS strain of HSV-1, VERO cells; concentration that inhibits virus-mediated cell killing by 50%
[6] = test system: intraperitoneal P388 leukemia; conditions: murine tumor model; cited from earlier work
[7] = test system: murine cytomegalovirus (MCMV); conditions: cited from earlier work
HSV II = assay: Inhibition of cytopathic effects by HSV II in MA 104 cells, XTT readout; assay type: cell-based; conditions: CPE determined with XTT
R-MuLV = conditions: treatment of R-MuLV in mice; cited from earlier work
MA 104 cells = assay: CC50 in the HSV II / MA 104 XTT assay; assay type: cell-based
[8] = test system: human immunodeficiency virus (HIV); conditions: cited from earlier work
[9] = test system: Rauscher murine leukemia virus (R-MuLV); conditions: in vitro; cited from earlier work
adenovirus = conditions: cited from earlier work
[10] = test system: broad-spectrum of DNA viruses; conditions: HSV-1 and 2, VZV, TK- HSV, HCMV, SeHV, SHV-1, BHV-1, EHV-1, ASF virus, vaccinia virus, adenoviruses, MSV; cited from earlier work
[11] = test system: herpes simplex virus type 1; conditions: mice and rabbits in vivo, including herpetic keratitis caused by a TK- mutant; cited from earlier work
[12] = test system: varicella zoster virus (VZV); conditions: cited from earlier work
vaccinia virus = conditions: cited from earlier work
[13] = Oral bioavailability in monkeys
HSV 1 = conditions: in vivo, HSV 1 infection in mice; cited from earlier work
B16 melanoma = conditions: murine tumor model; cited from earlier work
herpes viruses = conditions: in vitro; cited from earlier work

CC(NP(=O)(COCCn1cnc2c(N)ncnc21)NC(C)C(=O)OCc1ccccc1)C(=O)OCc1ccccc1 (stereo not drawn) [Ex 1, bis(alanyl benzyl ester)PMEA]
CC50 [1]: > 100 µM | IC50 (HSV-2 (strain 414-92)): 20 µM

Nc1ccn(CC(CO)OCP(=O)(O)O)c(=O)n1 (stereo not drawn) [HPMPC, 1-(2-phosphonomethoxy-3-hydroxypropyl)-cytosine]
activity against HCMV [2]: active | IC50 (HCMV; Human betaherpesvirus 5): 0.4 µM | activity against HSV-1 and -2 [3]: active

CC(C)(C)C(=O)OCOP1(=O)CO[C@@H](Cn2ccc(N)nc2=O)CO1 (stereo partly drawn) [cHFMPC pivaloyloxymethyl ester]
metabolic fate after incubation in intestinal wash [4]: converted to HPMPC pivaloyloxymethyl monoester | metabolic fate after incubation in intestinal homogenate [5]: converted to cHPMPC; also recorded: converted to HPMPC pivaloyloxymethyl monoester

Nc1nc2c(ncn2C[C@@H](CO)OCP(=O)(O)O)c(=O)[nH]1 [(S)-HFMPG]
activity against HSV-1 and -2 [3]: active

Nc1ncnc2c1ncn2CCOCP(=O)(O)O [PMEA, 9-(2-phosphonylmethoxyethyl)adenine]
EC50 (KOS strain of HSV-1): 138 µM | antitumor activity against P388 leukemia [6]: active | antiviral effect in vivo against MCMV [7]: significant antiviral effect | activity against HCMV [2]: activity | IC50 (HSV II): 19.3 µM | potency in vivo compared with AZT (R-MuLV): more potent | IC50 (HSV-2 (strain 414-92)): 21 µM | activity against HSV-1 and -2 [3]: active | CC50 (MA 104 cells; MA 104 cells, XTT assay of Example 4, read-out: CC50): 2000 µM | activity against HIV [8]: active | activity against R-MuLV [9]: active

Nc1nc(N)c2ncn(C[C@@H](CO)OCP(=O)(O)O)c2n1 [(S)-HPMPDAP]
activity against HSV-1 and -2 [3]: active

Nc1ncnc2c1ncn2C[C@@H](CO)OCP(=O)(O)O [(S)-HPMPA]
activity against adenovirus (adenovirus): active | antitumor activity against P388 leukemia [6]: active | activity against HSV-1 and -2 [3]: active | activity against a broad-spectrum of DNA viruses [10]: potent and selective activity | efficacy against local and systemic HSV-1 infections [11]: effective | activity against VZV [12]: active | activity against vaccinia virus (vaccinia virus): active

CC(C)(C)C(=O)OCOP(=O)(COCCn1cnc2c(N)ncnc21)OCOC(=O)C(C)(C)C [bis(POM)PMEA, bis(pivaloyloxymethyl)-9-(2-phosphonylmethoxyethyl)adenine]
IC50 (HSV II): 0.5 µM | CC50 (MA 104 cells): > 10 µM | oral bioavailability [13]: about 25%

Nc1ncc2ncn(CCOCP(=O)(O)O)c2n1 [PMEMAP]
activity against HIV [8]: active

Nc1ncnc2c1ncn2C[C@H]1COP(=O)(O)CO1 [(S)-cyclic HPMPA]
activity against adenovirus (adenovirus): active | activity against HSV-1 and -2 [3]: active | activity against VZV [12]: active | activity against vaccinia virus (vaccinia virus): active

Nc1ncnc2c1ncn2CCOCP(=O)(NCC(=O)OCc1ccccc1)NCC(=O)OCc1ccccc1 [Ex 4, bis(glycyl benzyl ester)PMEA]
CC50 [1]: > 100 µM | IC50 (HSV-2 (strain 414-92)): 60 µM

Nc1nc(N)c2ncn(CCOCP(=O)(O)O)c2n1 [PMEDAP]
activity against HSV-1 and -2 [3]: active | activity against HIV [8]: active

O=C(Nc1ccn(C[C@H]2COP(=O)(O)CO2)c(=O)n1)c1ccccc1 [N^4-benzoyl cHPMPC]
IC50 (HCMV): 22 µM

Nc1nc2c(ncn2CCOCP(=O)(O)O)c(=O)[nH]1 [PMEG]
potency relative to acyclovir (HSV 1): > 50 fold | antitumor activity against P388 leukemia [6]: active | antitumor activity against B16 melanoma (B16 melanoma): active | activity against HSV-1 and -2 [3]: active | activity against herpes viruses (herpes viruses): active

— US7439350B2, “Nucleotide analogs” (Gilead Sciences, Inc., priority 1993, dated 2008)
